Species: Rattus norvegicus
Test: Open TG-GATES - Regimen: Single
Assay type: toxicity, organism-based, Sprague-Dawley
Set-up: regimen Single, gender Male, age 6 weeks
Settings: in vivo, iv, route intravenous injection; for Eos / Fbg / Ht / Lym / MCH / MCHC / MCV / Mono / PT / Plat / RBC / Ret / Bas / Hb / Neu: tissue Blood; for KIDNEY_L / KIDNEY_R / KIDNEY_TOTAL: tissue Kidney; for LIVER: tissue Liver; for ALP / ALT / AST / CRE / DBIL / GLC / K / Na / RALB / TBIL / TC / TG / TP / gamma-GTP / LDH: tissue Plasma
[1] = 3 mg/kg, 3 h, dose level Middle
[2] = 3 mg/kg, 6 h, dose level Middle
[3] = 3 mg/kg, 9 h, dose level Middle
[4] = 3 mg/kg, 24 h, dose level Middle

`COc1cccc2c1C(=O)c1c(O)c3c(c(O)c1C2=O)C[C@@](O)(C(=O)CO)C[C@@H]3O[C@H]1C[C@H](N)[C@H](O)[C@H](C)O1` [DOXORUBICIN] gave an Eos [1] of 0.6%, a Fbg [1] of 260.4 mg/dL and a Ht [1] of 38%. For the same compound, the Lym [1] was 78.6%, the MCH [1] was 21.6 pg and the MCHC [1] was 34.7%. It also gave an MCV [1] of 62.4 fL, a Mono [1] of 3.8% and a PT [1] of 16.2 s. For the same compound, the Plat [1] was 113.3 x10_4/uL, the RBC [1] was 609.6 x10_4/ul and the Ret [1] was 6.7%. The KIDNEY_L [1] was 0.9 g, the KIDNEY_R [1] was 0.9 g and the KIDNEY_TOTAL [1] was 1.8 g. The LIVER [1] was 9.4 g, the ALP [1] was 1266.2 IU/L and the ALT [1] was 43.2 IU/L. For the same compound, the AST [1] was 80.2 IU/L, the CRE [1] was 0.2 mg/dL and the DBIL [1] was 0.002 mg/dL. For the same compound, the GLC [1] was 174.2 mg/dL, the K [1] was 4.1 meq/L and the Na [1] was 141.2 meq/L. For the same compound, the RALB [1] was 3 g/dL, the TBIL [1] was 0.022 mg/dL and the TC [1] was 65.6 mg/dL. For the same compound, the TG [1] was 99.4 mg/dL, the TP [1] was 5.1 g/dL and the gamma-GTP [1] was 1 IU/L. For the same compound, the TERMINAL_BW [2] was 208.1 g, the Bas [2] was 0% and the Eos [2] was 0.8%. For the same compound, the Fbg [2] was 294 mg/dL, the Ht [2] was 37.7% and the Lym [2] was 79%. It also gave an MCH [2] of 21.7 pg, an MCHC [2] of 34.3% and an MCV [2] of 63.3 fL. The Mono [2] was 4.2%, the PT [2] was 16 s and the Plat [2] was 130.3 x10_4/uL. For the same compound, the RBC [2] was 595.4 x10_4/ul, the Ret [2] was 7% and the KIDNEY_L [2] was 0.9 g. For the same compound, the KIDNEY_R [2] was 0.9 g, the KIDNEY_TOTAL [2] was 1.8 g and the LIVER [2] was 8.4 g. It also gave an ALP [2] of 1404.2 IU/L, an AST [2] of 77.2 IU/L and a CRE [2] of 0.1 mg/dL. It also gave a DBIL [2] of 0.002 mg/dL, a GLC [2] of 177 mg/dL and a K [2] of 4 meq/L. The LDH [2] was 128.2 IU/L, the Na [2] was 140.6 meq/L and the RALB [2] was 2.9 g/dL. The TBIL [2] was 0.032 mg/dL, the TC [2] was 73.2 mg/dL and the TG [2] was 59.6 mg/dL. For the same compound, the TP [2] was 5.1 g/dL, the gamma-GTP [2] was 1.8 IU/L and the TERMINAL_BW [3] was 210 g. It also gave a Bas [3] of 0%, an Eos [3] of 0.6% and a Fbg [3] of 280.6 mg/dL. For the same compound, the Hb [3] was 13 g/dL, the Ht [3] was 38.2% and the Lym [3] was 76%. For the same compound, the MCH [3] was 21.1 pg, the MCHC [3] was 34.2% and the MCV [3] was 61.8 fL. It also gave a Mono [3] of 4.2%, a Neu [3] of 18% and a PT [3] of 15.8 s. It also gave a Plat [3] of 117 x10_4/uL, an RBC [3] of 617.6 x10_4/ul and a Ret [3] of 6.9%. For the same compound, the KIDNEY_L [3] was 0.9 g, the KIDNEY_R [3] was 0.9 g and the KIDNEY_TOTAL [3] was 1.8 g. It also gave an LIVER [3] of 8.1 g, an ALP [3] of 1233.4 IU/L and an ALT [3] of 33.2 IU/L. It also gave an AST [3] of 69.2 IU/L, a CRE [3] of 0.1 mg/dL and a DBIL [3] of 0 mg/dL. The GLC [3] was 186.8 mg/dL, the K [3] was 4.3 meq/L and the Na [3] was 140.6 meq/L. For the same compound, the RALB [3] was 2.8 g/dL, the TBIL [3] was 0.018 mg/dL and the TC [3] was 71 mg/dL. It also gave a TG [3] of 70.2 mg/dL, a TP [3] of 5.1 g/dL and a gamma-GTP [3] of 1.2 IU/L. For the same compound, the TERMINAL_BW [4] was 215.4 g, the Bas [4] was 0% and the Eos [4] was 0.2%. It also gave a Fbg [4] of 277.8 mg/dL, a Hb [4] of 13.4 g/dL and a Ht [4] of 37.4%. It also gave a Lym [4] of 80.8%, an MCH [4] of 21.6 pg and an MCHC [4] of 35.7%. The MCV [4] was 60.4 fL, the Mono [4] was 4% and the Neu [4] was 13.2%. For the same compound, the PT [4] was 16.6 s, the Plat [4] was 118.9 x10_4/uL and the RBC [4] was 620 x10_4/ul. It also gave a Ret [4] of 4.5%, a KIDNEY_L [4] of 0.9 g and a KIDNEY_R [4] of 0.9 g. It also gave a KIDNEY_TOTAL [4] of 1.9 g, an ALP [4] of 1504.4 IU/L and an AST [4] of 68.2 IU/L. The CRE [4] was 0.2 mg/dL, the DBIL [4] was 0.002 mg/dL and the GLC [4] was 191.4 mg/dL. It also gave a K [4] of 4.5 meq/L, an LDH [4] of 124.6 IU/L and a Na [4] of 143 meq/L. For the same compound, the RALB [4] was 3 g/dL, the TBIL [4] was 0.018 mg/dL and the TC [4] was 75 mg/dL. The TG [4] was 88.6 mg/dL, the TP [4] was 5.2 g/dL and the gamma-GTP [4] was 1 IU/L. The TERMINAL_BW (10 mg/kg, 3 h, dose level High) was 211.4 g and the Bas (10 mg/kg, 3 h, dose level High) was 0%.

Reference: ChEMBL document CHEMBL3885861, “Open TG-GATES”
